Source: US9133235B2, “Macrocyclic antagonists of the motilin receptor for treatment of gastrointestinal dysmotility disorders” (Ocera Therapeutics, Inc., priority 2006, dated 2015)

Target: human motilin receptor (Homo sapiens, UniProt O43193)
Experiment: Competitive radioligand binding assay (motilin receptor)
Parameters: purchased PerkinElmer (SignalScreen) 6110544; host or cells: CHO cells, stably transfected; membranes
Conditions: for Ki: [125I]-motilin competition, membranes of CHO cells with human motilin receptor, read-out: Ki
Experimental: A. Competitive Radioligand Binding Assay (Motilin Receptor)
The competitive binding assay at the human motilin receptor was carried out analogously to assays described in the literature.
• Membranes were prepared from CHO cells stably transfected with the human motilin receptor and utilized at a quantity of 1.5 μg/assay point. [PerkinElmer™ SignalScreen Product #6110544] • [^125I]-Motilin (PerkinElmer, #NEX-378); final concentration: 0.04-0.06 nM • Motilin (Bachem™, #H-4385); final concentration: 1 μM • Multiscreen Harvest plates-GF/B (Millipore™, #MAHFB1H60) • Deep-well polypropylene titer plate (Beckman Coulter™, #267006) • TopSeal-A (PerkinElmer, #6005185) • Bottom seal (Millipore, #MATAH0P00) • MicroScint-0 (PerkinElmer, #6013611) • Binding Buffer: 50 mM Tris-HCl (pH 7.4), 10 mM MgCl2, 1 mM EDTA, 0.1% BSA Assay Volumes: • 150 μL of membranes diluted in binding buffer • 10 μL of compound diluted in binding buffer • 10 μL of radioligand ([^125I]-Motilin) diluted in binding buffer Final Test Concentrations (N=11) for Compounds: • 10, 5.0, 2.0, 1.0, 0.50, 0.20, 0.10, 0.050, 0.020, 0.010, 0.0050 μM. Compound Handling:
Compounds were provided frozen on dry ice at a stock concentration of 10 mM diluted in 100% DMSO and stored at −20° C. until the day of testing. On the test day, compounds were allowed to thaw at room temperature and than diluted in assay buffer according to the desired test concentrations. Under these conditions, the maximum final DMSO concentration in the assay was 0.5%.
In deep-well plates, diluted cell membranes (1.5 μg/mL) are combined with 10 μL of either binding buffer (total binding, N=5), 1 μM motilin (non-specific binding, N=3) or the appropriate concentration of test compound. The reaction is initiated by addition of 10 μL of [^125I]-motilin (final conc. 0.04-0.06 nM) to each well. Plates are sealed with TopSeal-A, vortexed gently and incubated at room temperature for 2 hours. The reaction is arrested by filtering samples through pre-soaked (0.3% polyethyleneimine, 2 h) Multiscreen Harvest plates using a Tomtec Harvester, washed 9 times with 500 μL of cold 50 mM Tris-HCl (pH 7.4), and than plates are air-dried in a fumehood for 30 minutes. A bottom seal is applied to the plates prior to the addition of 25 μL of MicroScint-0 to each well. Plates are than sealed with TopSeal-A and counted for 30 sec per well on a TopCount Microplate Scintillation and Luminescence Counter (PerkinElmer) where results are expressed as counts per minute (cpm).
Data are analyzed by GraphPad™ Prism® (GraphPad Software, San Diego, Calif.) using a variable slope non-linear regression analysis.
[formula] where total and non-specific binding represent the cpm obtained in the absence or presence of 1 μM motilin, respectively.

Sequence of human motilin receptor (O43193 whole entry): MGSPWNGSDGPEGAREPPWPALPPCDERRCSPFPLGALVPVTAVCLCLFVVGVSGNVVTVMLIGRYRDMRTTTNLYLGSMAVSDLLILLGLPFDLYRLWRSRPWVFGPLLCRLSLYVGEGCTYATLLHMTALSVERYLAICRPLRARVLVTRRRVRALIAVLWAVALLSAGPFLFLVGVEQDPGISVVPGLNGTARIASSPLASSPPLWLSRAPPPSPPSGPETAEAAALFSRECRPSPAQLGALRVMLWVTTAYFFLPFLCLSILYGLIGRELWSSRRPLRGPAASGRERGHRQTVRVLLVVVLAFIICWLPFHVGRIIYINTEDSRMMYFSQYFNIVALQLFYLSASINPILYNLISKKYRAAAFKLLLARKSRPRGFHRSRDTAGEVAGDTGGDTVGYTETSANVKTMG

Row | Ki [nM] | SMILES | Kd (previously determined during membrane characterization) [nM]
1 | ≤ 100 | CC(C)[C@H]1NC(=O)[C@@H](Cc2cccc(Cl)c2)NCCOc2ccccc2CCCNC(=O)[C@H](CCNC(=N)N)NC1=O [Compound 507] | –
2 | ≤ 100 | CC(C)[C@H]1NC(=O)[C@@H](Cc2cccc(Cl)c2)NCCOc2ccccc2CCCNC(=O)[C@H](CNc2nccs2)NC1=O [Compound 509] | –
3 | ≤ 1000 | CC(C)[C@H]1NC(=O)[C@@H](Cc2cccc(F)c2)NCCOc2ccccc2C[C@@H](C)CNC(=O)[C@H](CN(C)C)NC1=O [Compound 514] | –
4 | ≤ 100 | CC(C)[C@H]1NC(=O)[C@@H](Cc2cccc(Cl)c2)NCCOc2ccccc2CCCNC(=O)[C@H](CC(=N)N)NC1=O [Compound 518] | –
5 | ≤ 100 | CC(C)[C@H]1NC(=O)[C@@H](Cc2cccc(Cl)c2)NCCOc2ccccc2CCCNC(=O)[C@H](CNC2=NCCCN2)NC1=O [Compound 521] | –
6 | ≤ 100 | CC(C)[C@H]1NC(=O)[C@@H](Cc2cccc(Cl)c2)NCCOc2ccccc2CCCNC(=O)[C@H](CN/C(N)=N/C#N)NC1=O [Compound 522] | –
7 | ≤ 100 | CC(C)[C@H]1NC(=O)[C@@H](Cc2cccc(C(F)(F)F)c2)NCCOc2ccccc2CCCNC(=O)[C@H](Cn2nncc2CN)NC1=O [Compound 523] | –
8 | ≤ 100 | CC(C)[C@H]1NC(=O)[C@@H](Cc2cccc(C(F)(F)F)c2)NCCOc2ccccc2CCCNC(=O)[C@H](CNc2ncccn2)NC1=O [Compound 524] | –
9 | ≤ 100 | CC(C)[C@H]1NC(=O)[C@@H](Cc2cccc(C(F)(F)F)c2)NCCOc2ccccc2CCCNC(=O)[C@H](CN2CCOCC2)NC1=O [Compound 525] | –
10 | ≤ 100 | Cc1cnnn1C[C@@H]1NC(=O)[C@@H](C(C)C)NC(=O)[C@@H](Cc2cccc(C(F)(F)F)c2)NCCOc2ccccc2CCCNC1=O [Compound 526] | –
11 | ≤ 100 | Cc1nnnn1C[C@@H]1NC(=O)[C@@H](C(C)C)NC(=O)[C@@H](Cc2cccc(C(F)(F)F)c2)NCCOc2ccccc2CCCNC1=O [Compound 527] | –
12 | ≤ 100 | Cc1nnn(C[C@@H]2NC(=O)[C@@H](C(C)C)NC(=O)[C@@H](Cc3cccc(C(F)(F)F)c3)NCCOc3ccccc3CCCNC2=O)c1C [Compound 528] | –
13 | ≤ 10 | CC(C)C[C@@H]1NC(=O)[C@@H](C(C)C)NC(=O)[C@@H](Cc2cccc(F)c2)N[C@@H](C)COc2ccccc2CCCNC1=O [Compound 556] | –
14 | ≤ 10 | CCC[C@@H]1NC(=O)[C@@H](CC)NC(=O)[C@@H](Cc2cccc(F)c2)N[C@@H](C)COc2ccccc2CCCNC1=O [Compound 558] | –
15 | ≤ 10 | CC(C)[C@H]1NC(=O)[C@@H](Cc2ccc(F)cc2)N[C@@H](C)COc2ccccc2CCCNC(=O)[C@H](CC2CC2)NC1=O [Compound 559] | –
16 | ≤ 10 | CCC[C@@H]1NC(=O)[C@@H](C(C)C)NC(=O)[C@@H](Cc2ccc(F)cc2)N[C@@H](C)COc2ccccc2CCCNC1=O [Compound 560] | –
17 | ≤ 10 | CCC[C@@H]1NC(=O)[C@@H](C(C)C)NC(=O)[C@@H](Cc2ccc(F)c(F)c2)N[C@@H](C)COc2ccccc2CCCNC1=O [Compound 561] | –
18 | ≤ 10 | CCC[C@@H]1NC(=O)[C@@H](C(C)C)NC(=O)[C@@H](Cc2cccc(OC)c2)N[C@@H](C)COc2ccccc2CCCNC1=O [Compound 562] | –
19 | ≤ 10 | C[C@@H]1CNC(=O)[C@H](CC2CC2)NC(=O)[C@@H](C2CC2)NC(=O)[C@@H](Cc2cccc(F)c2)NCCOc2ccccc2C1 [Compound 566] | –
20 | ≤ 10 | CC(C)[C@H]1NC(=O)[C@@H](Cc2ccc(F)cc2)NCCOc2ccccc2C[C@H](C)CNC(=O)[C@H](CC2CC2)NC1=O [Compound 567] | –
21 | ≤ 100 | CCC[C@@H]1NC(=O)[C@@H](C(C)C)NC(=O)[C@@H](Cc2ccc(C(F)(F)F)cc2)NCCOc2ccccc2CCCNC1=O [Compound 575] | –
22 | ≤ 1000 | CC(C)[C@H]1NC(=O)[C@@H](Cc2ccc(Cl)cc2)NCCOc2ccccc2CCCNC(=O)[C@H](CNS(C)(=O)=O)NC1=O [Compound 576] | –
23 | ≤ 1000 | CC(C)[C@H]1NC(=O)[C@@H](Cc2ccc(Cl)cc2)NCCOc2ccccc2CCCNC(=O)[C@H](CNC(N)=O)NC1=O [Compound 577] | –
24 | ≤ 1000 | CC(C)NC[C@@H]1NC(=O)[C@@H](C(C)C)NC(=O)[C@@H](Cc2ccc(O)cc2)NCCOc2ccccc2CCCNC1=O [Compound 579] | –
25 | ≤ 100 | CC(C)NC[C@@H]1NC(=O)[C@@H](C(C)C)NC(=O)[C@@H](Cc2ccc(Cl)cc2)NCCOc2ccccc2CCCNC1=O [Compound 581] | –
26 | ≤ 1000 | COc1ccc(C[C@H]2NCCOc3ccccc3CCCNC(=O)[C@H](CCO)NC(=O)[C@@H](C(C)C)NC2=O)cc1 [Compound 583] | –
27 | ≤ 100 | CC(C)[C@H]1NC(=O)[C@@H](Cc2cccc(F)c2)NCCOc2ccccc2CCCNC(=O)[C@H](CC2CC2)NC1=O [Compound 584] | –
28 | ≤ 100 | CC(C)[C@H]1NC(=O)[C@@H](Cc2cccc(F)c2)NCCOc2ccccc2C[C@@H](C)CNC(=O)[C@H](CC2CC2)NC1=O [Compound 587] | –
29 | ≤ 10 | CC(C)[C@H]1NC(=O)[C@@H](Cc2cccc(F)c2)NCCOc2ccccc2C[C@H](C)CNC(=O)[C@H](CC2CC2)NC1=O [Compound 588] | –
30 | – | CC[C@H](C)[C@H](NC(=O)[C@@H]1CCCN1C(=O)[C@@H](NC(=O)[C@@H](N)Cc1ccccc1)C(C)C)C(=O)N[C@@H](Cc1ccccc1)C(=O)N[C@H](C(=O)N[C@@H](Cc1ccc(O)cc1)C(=O)NCC(=O)N[C@@H](CCC(=O)O)C(=O)N[C@@H](CC(C)C)C(=O)N[C@@H](CCC(N)=O)C(=O)N[C@@H](CCCNC(=N)N)C(=O)N[C@@H](CCSC)C(=O)N[C@@H](CCC(N)=O)C(=O)N[C@@H](CCC(=O)O)C(=O)N[C@@H](CCCCN)C(=O)N[C@@H](CCC(=O)O)C(=O)N[C@@H](CCCNC(=N)N)C(=O)N[C@@H](CC(N)=O)C(=O)N[C@@H](CCCCN)C(=O)NCC(=O)N[C@@H](CCC(N)=O)C(=O)O)[C@@H](C)O [[^125I]-motilin, [^125I]-Motilin, reference compound] | 0.16
